# Entries after “also recorded” stand apart in the source; their conditions may differ. Read-outs that look alike come from different tables or passages of the source. *: point of attachment. pamidronate = 1-hydroxy-1,1-bisphosphonate, amide on Lys carboxyl, O=P(O)(O)C(O)(CCN*)P(=O)(O)O; BHQ‑1 = Black Hole Quencher-1; βAla = NCCC(=O)O
# What was measured:
# Cathepsin K [1] = molecular target: T1, Cathepsin K (Homo sapiens, UniProt P43235); assay: Enzyme studies: cleavage of the probe by activated cathepsin K, initial rates, Lineweaver-Burke plot; format: biochemical
# T1 construct: purchased Enzo Life Sciences
# T1 sequence (P43235 115-329): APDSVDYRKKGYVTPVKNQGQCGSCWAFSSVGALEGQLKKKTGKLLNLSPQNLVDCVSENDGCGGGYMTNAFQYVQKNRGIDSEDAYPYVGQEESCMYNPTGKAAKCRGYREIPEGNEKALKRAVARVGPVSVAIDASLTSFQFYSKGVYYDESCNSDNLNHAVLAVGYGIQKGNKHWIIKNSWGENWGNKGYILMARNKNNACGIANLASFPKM
# Procedure: Kinetic parameters Kcat and Km were determined from initial rates at 37° C. and pH 5.5 in a buffer consisting of 50 mM sodium acetate buffer with 2.5 mM EDTA, 1 mM DTT and 0.01% TRITON X-100®. Enzyme concentration was 2.5 nM, substrate concentration ranged from 0.0781 to 2.50 μM. Fluorescence measurements were done every 1 min using a Biotek Synergy H4 plate reader with black Corning 3720 96-well plates. Parameters were determined using a Lineweaver-Burke plot. Fluorescence calibration was obtained using compound 9a at concentrations between 0.00977 and 2.5 μM. Background fluorescence was estimated using intact 10a at concentrations ranging from 0.0781 to 2.50 μM.
# Cathepsin K was prepared by activation of procathepsin K purchased from Enzo Life Sciences. Activation was carried out by adding […], pH 3.5 sodium acetate buffer in a 1:2 ratio to as-received proenzyme solution and leaving at 21° C. for 30 min before dilution with assay buffer. Solutions of activated enzyme were stored on ice and used within 10 min. Buffers were prepared in house according to concentrations provided by Enzo Life Sciences.
# [2] = Adsorption on calcium phosphate substrates; format: physicochemical
# [3] = tested on: monocyte-derived human osteoclasts; assay: Osteoclasts cultured on calcium phosphate coated microwells preadsorbed with probe, fluorescence timelapse; format: cell-based
# Text: We attribute this to a lack of calcium phosphate for the probe to bind to. In several cases, osteoclasts can be seen migrating on the surface without completely dissolving the calcium phosphate and leaving a trail of enhanced fluorescence in their wake (see, e.g., FIG. 4). This is how the probe is presumed to function in vivo, by fluorescently labeling any regions exposed to osteoclast resorptive activity. […] Another phenomenon observed in all videos was a transient decrease in fluorescence within the boundaries of the osteoclast sealing zone, seen as rapidly moving dark areas around the cells (see, e.g., FIG. 5). This effect was expected and results from the pH sensitivity of carboxyfluorescein. The pH under an active osteoclast has been reported to be as low as 4.5 (Teitelbaum (2000) Science, 289(5484): 1504-1508). Carboxyfluorescein cyclizes to a nonfluorescent form when protonated and has a pKa of approximately 6.5 (Han & Burgess (2010) Chem. Rev. 110: 2709-2728; Massou et al. (2000) Biochem. Educ. 28:171-173). Thus fluorescent intensity is decreased. This is further evidence that the probe is exposed to the sub-osteoclast environment as intended. Another phenomenon observed in the timelapses was concentrated fluorescent intensity in cells themselves, both attached and detached from the substrate. […]
# human osteoclasts = assay: Human osteoclasts co-cultured with human multiple myeloma cells (8226-LUC); format: cell-based; settings: co-cultured with 8226-LUC
# osteoclast activity = assay: Fluorescence imaging of maxilla ex vivo in mice after tooth extraction; settings: young mice, 5 nMol/mouse
# Text: FIG. 8, panels a-c, show White light (left) and fluorescence (right) images of mice after tooth extraction. Panel a) Vehicle control; Panel b) OFS-1 (5a) 5 nMol/mouse; Panel c) Positive control (4a) 5 nMol/mouse
# [4] = tested on: 8226-LUC human multiple myeloma cells; assay: OFS-1 activation by multiple myeloma in humanized BLT mice; format: in vivo; settings: humanized mice carrying 8226-LUC cells
# Procedure: FIG. 9, panels a-c, illustrates OFS-1 activation by multiple myeloma in humanized mice. 8226-LUC human multiple myeloma cells were injected to humanized BLT mice.
# Cathepsin K [5] = molecular target: T1, Cathepsin K; settings: values found in literature; cited from earlier work
# [6] = cited from earlier work
compound,measurement,setting,value
OFS-1: bone-targeted pamidronate probe with 5-FAM fluorophore and BHQ-1 quencher linked by cathepsin K peptide Gly-His-Pro-Gly-Gly-Pro-Gln-Gly ({BHQ‑1}-GHPGGPQG-{βAla-K(5-FAM)-pamidronate}),Kcat,"Cathepsin K [1]; in solution at 37° C., pH 5.5",0.2 ± 0.03 s⁻¹
same,Km,"Cathepsin K [1]; in solution at 37° C., pH 5.5",1.7 ± 0.2 µM
same,Cleavage/activation by cathepsin K,Cathepsin K [1]; purified cathepsin K,cleaved by cathepsin K albeit at a slower rate; also recorded: activated by purified cathepsin K
same,Adsorption on calcium phosphate substrates,[2],avidly adsorbed on calcium phosphate substrates; also recorded: found to adsorb on calcium phosphate substrates
same,Fluorescent signal in response to osteoclast resorptive activity,[3],give a fluorescent signal in response to resorptive activity
same,Fluorescent signal in response to osteoclast resorptive activity,[3]; listed as USC FRET-1,increased fluorescence around cells that were actively resorbing hydroxyapatite (HA)
same,OFS-1 activation by osteoclasts in co-culture with multiple myeloma cells,human osteoclasts,significantly increased OFS-1 activation
same,Fluorescent signal in maxilla ex vivo after tooth extraction,osteoclast activity,increased fluorescent signal in maxilla ex vivo; also recorded: enhanced signal in response to tooth extraction
same,Probe activation / fluorescent signal at multiple myeloma engrafted sites,[4],localized at the multiple myeloma (8226-LUC) engrafted site; also recorded: Strong activation
Abz-HPGGPQ-EDN2Ph,Kcat (literature value),Cathepsin K [5],0.5 ± 0.03 s⁻¹
same,Km,Cathepsin K [5],1.2 ± 0.2 µM
"O=C(O)c1ccc2c(c1)C(=O)OC21c2ccc(O)cc2Oc2cc(O)ccc21 [Carboxyfluorescein, 5-carboxyfluorescein]",pKa,[6],approximately 6.5

# From patent publication US11219697B2, “Osteoadsorptive fluorogenic substrate of cathepsin k for imaging osteoclast activity and migration” (The Regents of the University of California, priority 2017, dated 2022)
